{"source": "patent US10441560B2", "about": "“Compositions and methods for treating non-alcoholic steatohepatitis” (priority 2013, dated 2019)", "key": {"[1]": {"assay": "Absorption, distribution and metabolites after oral 14C-EPA-E in rats", "assay_type": "in vivo", "method": "(§1) After administration of ^14C-EPA-E into the ligated intestine of rats, the residual radioactivity in the intestine at 24 hours was only 4.6% of the administered dose. Radioactivity transferred to the plasma and lymph was mainly detected in the triglyceride (TG) fraction in the early phase after dosing, while distribution to the free fatty acid (FFA) fraction was slight at all timepoints. […] Orally administered EPA-E was primarily incorporated in adrenal gland lipids as cholesterol esters of the fatty acids eicosapentaenoic acid (EPA), docosapentaenoic acid (DPA) and docosahexaenoic acid (DHA).\nAfter oral administration of ^14C-EPA-E to the rat, EPA, DPA and DHA were detected as metabolites in the total lipid fraction of the plasma and tissues (liver, fat, heart and brain). […] In the total lipid fraction of the liver, the radioactivity originated mainly from EPA, DPA and DHA. Thus, it is considered that EPA, DPA and DHA are the predominant metabolites of ^14C-EPA-E in tissues, as constituent fatty acids of the total lipid fraction."}, "ligated intestine": {"system": "ligated intestine", "assay": "Administration of 14C-EPA-E into the ligated intestine of rats", "assay_type": "in vivo", "conditions": "at 24 hours", "method": "as §1"}, "[2]": {"assay": "Hydrolysis in rat small intestine homogenates, lymph, plasma and liver homogenates", "assay_type": "in vitro ADME"}, "CYP450": {"system": "CYP450", "conditions": "at free concentrations observed in humans; previous studies; cited from earlier work"}, "[3]": {"assay": "Lipid lowering in animal studies", "assay_type": "in vivo", "conditions": "rats, hamsters and rabbits"}, "arteries": {"system": "arteries", "assay": "Preservation of elasticity of arteries", "assay_type": "in vivo", "conditions": "rabbits"}, "[4]": {"system": "diet-induced hepatic steatosis model", "assay": "Mouse diet-induced hepatic steatosis model", "assay_type": "in vivo", "conditions": "repeat oral administration at ≥0.1 mg/g"}, "[5]": {"system": "galactosamine-induced steatohepatitis mouse model", "assay": "Galactosamine-induced steatohepatitis mouse model", "assay_type": "in vivo", "conditions": "oral administration at 1000 mg/kg"}, "[6]": {"system": "methionine-choline deficient diet rat model of nonalcoholic steatohepatitis", "assay": "Methionine-choline deficient diet rat model of nonalcoholic steatohepatitis", "assay_type": "in vivo", "conditions": "repeat oral administration at 1000 mg/kg"}, "[7]": {"system": "central nervous, autonomic nervous, respiratory and cardiovascular systems", "assay": "Safety pharmacology studies", "assay_type": "in vivo", "conditions": "oral doses up to 3000 mg/kg"}, "pylorus-ligated rats": {"system": "pylorus-ligated rats", "assay": "Gastric fluid levels in pylorus-ligated rats", "assay_type": "in vivo", "conditions": "3000 mg/kg oral dose"}, "[8]": {"assay": "Excretion of radioactivity after single oral administration (rat)", "assay_type": "in vivo, rats", "method": "EPADEL is a product containing ethyl all-cis-5,8,11,14,17-eicosapentaenoate (EPA-E), one of the n−3 essential fatty acids. The preclinical absorption, distribution, metabolism and excretion (ADME) characteristics of EPA-E have been determined primarily in rats.\n(§2) Consequently, when EPA-E is administered orally to humans, it would appear that it is well absorbed, even though the unchanged ethyl ester form is not detected, and the free form (EPA) is only detected at a very low level, in the blood. Due to this absorption mechanism of essential fatty acids, the administered EPA-E exists as a blood-constituent fatty acid in the total lipids. In fact, according to the approval package document of Lovaza®, the free form of EPA is undetectable in the circulation (<1 μM) following an oral dose of 4 g of Omacor® (a mixture of the ethyl esters of EPA and DHA) Following oral administration of EPA-E, EPA, DPA and DHA were isolated and identified as metabolites in tissues and plasma. EPA, DPA and DHA were incorporated into TG and PL. Radioactivity was primarily excreted in expired air (44%) after single oral administration at 30 mg/kg EPA-E with minimal excretion in bile and urine (˜3%) and approximately 20% excreted in feces.\nRenal excretion was the elimination route for several minor highly polar metabolites (<0.4%), but EPA-E, EPA, DPA or DHA were not detected in the urine. In feces, EPA-E and EPA, evidently derived from the unabsorbed drug, were detected; however, no DPA or DHA was detected in the feces."}, "[9]": {"set-up": "species or system dogs", "conditions": "dog, in vivo, po, 30 mg/kg, 1 week", "method": "as §2"}, "NASH": {"system": "NASH", "assay": "Phase II double blind, placebo-controlled clinical trial of EPA-E in subjects with NASH", "assay_type": "in vivo, human", "excerpt": "This example provides the protocol used for an ongoing phase II clinical trial, double blind, placebo-controlled study to investigate the safety, efficacy, and pharmacokinetic profile of two doses of EPA-E in subjects with NASH. Up to 70 subjects were enrolled into each treatment arm, for a total of 210 subjects to be enrolled. Block randomization using an interactive voice response system (IVRS) was used to assign patients in a 1:1:1 ratio to two active doses and placebo. Patients were stratified at randomization by presence or absence of diabetes. Patients with diabetes comprised no more than 25% of the total number of patients enrolled. […] Subjects were required to have a liver biopsy with proven NASH in the 6 month period prior to screening. The Pharmacokinetic profile for EPA-E was evaluated in a subgroup of subjects in specified sites. Subjects were approached prior to providing informed consent to determine if they will participate in the PK group subset. Approximately 36 subjects participated in the PK subset evaluation (12 from each treatment arm, to include 6 males and 6 females). Overall study duration plan was 2 years. In order to support the trial, EPA-E capsules and matching placebo capsules were prepared. EPA-E capsule is an oval soft gelatin capsule containing 300 mg of EPA-E as an active ingredient. […] These capsules are unidentifiable as EPA-E capsules or placebo capsules. Subjects were administered orally 3 capsules 3 times daily, immediately after meals. Subjects were potentially included into the study if they met all the following criteria: • 1. Diagnosis of definite NASH by the central reading pathologists: • Liver biopsy slides will be submitted for evaluation by the central pathologists according to one of the following criteria: • a. Previous liver biopsies must have been obtained within 6 months prior to informed consent and should be judged by the local pathologist as showing NAS ≥4 with a minimum score of 1 each for steatosis and lobular inflammation plus […] ballooning OR at least 1a sinusoidal fibrosis AND a finding of possible or definite steatohepatitis • b. For liver biopsies performed after informed consent is obtained, all slides will be submitted for reading by the central pathologists in conformity with the independent pathology review charter (IPRC) • 2. Patients of either gender greater than 18 years of age • 3. Patients with diabetes that have been on stable doses of anti-diabetic agents since at least 6 months prior to liver biopsy may be enrolled • 4. Females must be of non-child bearing potential (surgically sterilized or at least two years post-menopausal) or if of child-bearing potential, must have a negative pregnancy test at screening and agree to use an effective form of contraception during the study and for at least 30 days following the last dose of study medication • 5. Normal ECG or clinically non-significant findings at the Screening and Baseline visits • 6. No significant concomitant medical illness, without any clinically significant physical exam findings and without any clinically significant laboratory findings, as determined by the principal investigator • 7. […] Inability or unwillingness to have a liver biopsy • 2. Diagnosis of cirrhosis by central pathology reviewers • 3. Previous bariatric surgery or biliary diversion (i.e. gastric bypass), esophageal banding and gastric banding • 4. Serum ALT>300 U/L • 5. Subject has used drugs associated with steatohepatitis within 6 months prior to screening (corticosteroids, high dose estrogens, methotrexate, amiodarone, anti-HIV drugs, tamoxifen, diltiazem) • 6. Use of the following anti-NASH agents for more than a 2 week period in the 3 months prior to liver biopsy or the 3 months prior to screening: • a. Vitamin E>60 IU per day • b. Omega-3-acid ethyl esters or omega-3-PUFA-containing supplements >200 mg per day • c. Thiazoledinediones (e.g. pioglitazone) • 7. […]"}, "[10]": {"conditions": "single oral administration at 30 mg/kg"}}}
{"molecule": "CC/C=C\\C/C=C\\C/C=C\\C/C=C\\C/C=C\\CCCC(=O)OCC", "note": "[^14C-EPA-E]", "values": [{"measurement": "unchanged EPA-E in the plasma or tissues", "setting": "[1]; rat, oral administration, plasma, liver, fat, heart and brain", "result": "no unchanged EPA-E was found"}, {"measurement": "distribution of radioactivity in body tissues", "setting": "[1]; rats, oral 14C-EPA-E", "result": "widely distributed in the body tissues"}, {"measurement": "residual radioactivity in the intestine", "setting": "ligated intestine", "result": "4.6 % of the administered dose"}, {"measurement": "hydrolysis", "setting": "[2]", "result": "hydrolyzed rapidly"}]}
{"molecule": "CC/C=C\\C/C=C\\C/C=C\\C/C=C\\C/C=C\\CCCC(=O)O", "note": "[EPA, Eicosapentaenoic acid]", "values": [{"measurement": "CYP450 inhibition", "setting": "CYP450", "result": "unlikely to inhibit CYP450"}]}
{"molecule": "CC/C=C\\C/C=C\\C/C=C\\C/C=C\\C/C=C\\CCCC(=O)OCC", "note": "[EPA-E, ethyl all-cis-5,8,11,14,17-eicosapentaenoate]", "values": [{"measurement": "lipids", "setting": "[3]", "result": "lower lipids"}, {"measurement": "elasticity of arteries", "setting": "arteries", "result": "preserve the elasticity of arteries"}, {"measurement": "fat accumulation", "setting": "[4]", "result": "suppressed fat accumulation"}, {"measurement": "hepatic SREBP-1c levels", "setting": "[4]", "result": "suppressing hepatic SREBP-1c levels"}, {"measurement": "monounsaturated fatty acid (MUFA) synthesis by SCD1", "setting": "[4]", "result": "suppressing"}, {"measurement": "progression of steatohepatitis", "setting": "[5]", "result": "retarded progression of steatohepatitis"}, {"measurement": "triglyceride (TG) accumulation", "setting": "[5]", "result": "suppressing triglyceride (TG) accumulation"}, {"measurement": "fibrosis", "setting": "[6]", "result": "inhibited fibrosis"}, {"measurement": "inflammation and oxidative stress", "setting": "[6]", "result": "suppressing inflammation and oxidative stress"}, {"measurement": "effect on the central nervous, autonomic nervous, respiratory and cardiovascular systems", "setting": "[7]", "result": "no effect"}, {"measurement": "gastric fluid levels", "setting": "pylorus-ligated rats", "result": "reduction in gastric fluid levels"}, {"measurement": "absorption", "setting": "[1]; single oral dose 30-1000 mg/kg, rats", "result": "well-absorbed"}, {"measurement": "radioactivity excreted in expired air", "setting": "[8]; rat, in vivo, po, 30 mg/kg", "result": 44, "unit": "%"}, {"measurement": "radioactivity excreted in bile and urine", "setting": "[8]; [10]", "result": "~3", "unit": "%"}, {"measurement": "radioactivity excreted in feces", "setting": "[8]; [10]", "result": "approximately 20%"}, {"measurement": "EPA-E in the urine", "setting": "[8]; urine", "result": "not detected"}, {"measurement": "radioactivity excreted in the urine", "setting": "[9]", "result": 1.0, "unit": "%"}, {"measurement": "radioactivity recovered in the feces", "setting": "[9]", "result": 19.2, "unit": "%"}, {"measurement": "response rate", "setting": "NASH; fasting glucose =<125 mg/dL and HbA1c =<6.4, Study arm 1, FIG. 4", "result": "higher response to rate"}, {"measurement": "efficacy (responders)", "setting": "NASH; fasting glucose =<125 mg/dL and HbA1c =<6.4, Study arm 2", "result": "equivalent to that of Study arm 1"}, {"measurement": "NASH response (change of NAS score)", "setting": "NASH; patients with GGT levels =<33 IU/L, Study arm 1 and 2, FIG. 9, preliminary", "result": "higher efficacy"}, {"measurement": "efficacy (preliminary endpoint achievement rate v. GGT)", "setting": "NASH; patients with GGT levels =<60 IU/L, Study arm 1 and 2, FIG. 8, preliminary", "result": "higher efficacy"}, {"measurement": "improvement of serum EPA/AA ratio on Day 365", "setting": "NASH; patients with GGT ≤33 IU/L, Study arm 2, FIG. 10, preliminary", "result": "higher efficacy"}, {"measurement": "serum EPA/AA ratio over time", "setting": "NASH; patients with GGT ≤33 IU/L, Study arm 2, FIG. 12", "result": "significant increase"}, {"measurement": "efficacy (responders)", "setting": "NASH; patients with HbA1c levels =<6.4, Study arm 1, FIG. 2, preliminary", "result": "higher efficacy"}, {"measurement": "efficacy (responders)", "setting": "NASH; patients with HbA1c levels =<6.4, Study arm 2, preliminary", "result": "equivalent to that of Study arm 1"}, {"measurement": "efficacy (responders)", "setting": "NASH; patients with fasting glucose =<125 mg/dL, Study arm 1, FIG. 3, preliminary", "result": "higher efficacy"}, {"measurement": "efficacy (responders)", "setting": "NASH; patients with fasting glucose =<125 mg/dL, Study arm 2, preliminary", "result": "equivalent to that of Study arm 1"}, {"measurement": "efficacy (responders)", "setting": "NASH; patients without biliary tract disease markers (GGT ≤33 IU/L), Study arm 1 (600 mg TID) and Study arm 2 (900 mg TID), FIG. 7, preliminary", "result": "higher efficacy"}, {"measurement": "efficacy (responders: NAS Score ≤3 or improvement of ≥2 across at least 2 of NAS components)", "setting": "NASH; patients without diabetes or with mild diabetes compared to diabetic patients, Study arm 1 (600 mg EPA-E, TID), FIG. 1, preliminary", "result": "higher efficacy"}, {"measurement": "efficacy (responders: NAS Score ≤3 or improvement of ≥2 across at least 2 of NAS components)", "setting": "NASH; patients without diabetes or with mild diabetes, Study arm 2 (900 mg EPA-E, TID), preliminary", "result": "equivalent to that of Study arm 1"}]}
